In ChEMBL document CHEMBL1201862, “PubChem BioAssay data set” (2004):
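Each compound was tested at five concentrations against cells in 96-well plates for 48 hours. GI50 marks 50% less growth.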 Active and inactive are the calls of the source. No stated cut-off is given here; in the data, active = GI50 up to about 1.1 µM and inactive = higher.

Key:
Test in all cases: NCI tumour cell line growth inhibition, 48 h
[1] = system: HCT-15
[2] = system: HOP-62
[3] = system: HT-29
[4] = system: Hs-578T
[5] = system: IGROV-1
[6] = system: K562
[7] = system: M14
[8] = system: MDA-MB-435
[9] = system: MDA-N
[10] = system: NCI-H226
[11] = system: OVCAR-5
[12] = system: OVCAR-8
[13] = system: SF-268
[14] = system: SF-539
[15] = system: SK-MEL-28
[16] = system: SK-MEL-5
[17] = system: SNB-19
[18] = system: SR
[19] = system: TK-10
[20] = system: UO-31

SMILES	GI50 [1]	GI50 [2]	GI50 [3]	GI50 [4]	GI50 [5]	GI50 [6]	GI50 [7]	GI50 [8]	GI50 [9]	GI50 [10]	GI50 [11]	GI50 [12]	GI50 [13]	GI50 [14]	GI50 [15]	GI50 [16]	GI50 [17]	GI50 [18]	GI50 [19]	GI50 [20]
Clc1ccc(-c2ccc(-c3nnc(CCc4nnc(-c5ccc(-c6ccc(Cl)cc6)o5)o4)o3)o2)cc1	> 100 µM	> 50.8 µM (inactive)	> 100 µM (inactive)	14.8 µM (inactive)	> 71.9 µM (inactive)	7.93 µM (inactive)	> 100 µM (inactive)	> 100 µM (inactive)	> 100 µM (inactive)	> 61.7 µM (inactive)	> 100 µM (inactive)	> 91 µM (inactive)	28.6 µM (inactive)	27.3 µM (inactive)	> 100 µM (inactive)	> 100 µM (inactive)	> 100 µM (inactive)	0.276 µM (active)	40.9 µM (inactive)	> 100 µM (inactive)
CCOP(=O)(OCC)/C(C#N)=C/c1[nH]cnc1C	> 100 µM	> 100 µM (inactive)	> 100 µM (inactive)	> 100 µM (inactive)	> 100 µM (inactive)	> 100 µM (inactive)	> 100 µM (inactive)	> 100 µM (inactive)	> 100 µM (inactive)	> 100 µM (inactive)	> 100 µM (inactive)	> 100 µM (inactive)	> 100 µM (inactive)	49.5 µM (inactive)	> 100 µM (inactive)	> 100 µM (inactive)	> 100 µM (inactive)	> 100 µM (inactive)	> 100 µM (inactive)	> 100 µM (inactive)
COc1ccc(Cn2c3c(cc(OC(C)=O)c2=O)Cc2ccccc2-3)cc1	2.55 µM	14.9 µM (inactive)	10.7 µM (inactive)	20 µM (inactive)	7.82 µM (inactive)	11.6 µM (inactive)	6.24 µM (inactive)	11 µM (inactive)	12.1 µM (inactive)	14.3 µM (inactive)	18.7 µM (inactive)	7.64 µM (inactive)	7.82 µM (inactive)	8.02 µM (inactive)	22.1 µM (inactive)	12.2 µM (inactive)	12.9 µM (inactive)	2.14 µM (inactive)	13.1 µM (inactive)	5.56 µM (inactive)
CC1=NN(C(=O)CC(=O)Nc2ccc(C)cc2)C(=O)C1/N=N\c1ccc(S(=O)(=O)c2ccc(/N=N/C3C(=O)N(C(=O)CC(=O)Nc4ccc(C)cc4)N=C3C)cc2)cc1 (stereo not given)	44.6 µM	> 100 µM (inactive)	> 10 µM (inactive)	93.8 µM (inactive)	28.4 µM (inactive)	4.98 µM (inactive)	38 µM (inactive)	84.3 µM (inactive)	69.7 µM (inactive)	> 100 µM (inactive)	> 100 µM (inactive)	64.6 µM (inactive)	> 100 µM (inactive)	> 100 µM (inactive)	> 100 µM (inactive)	58.9 µM (inactive)	> 100 µM (inactive)	27.5 µM (inactive)	> 100 µM (inactive)	> 100 µM (inactive)
CS(=O)(=O)CS(=O)(=O)OCCCl	209 µM	43.3 µM (inactive)	427 µM (inactive)	272 µM (inactive)	252 µM (inactive)	216 µM (inactive)	191 µM (inactive)	991 µM (inactive)	107 µM (inactive)	177 µM (inactive)	621 µM (inactive)	191 µM (inactive)	47.9 µM (inactive)	50.4 µM (inactive)	490 µM (inactive)	211 µM (inactive)	96.4 µM (inactive)	15.8 µM (inactive)	465 µM (inactive)	348 µM (inactive)
O=C(Nc1cccc2cnccc12)c1cc2c(cc1Cl)Sc1nccn1S2(=O)=O	8.71 µM	14 µM (inactive)	14.6 µM (inactive)	20.1 µM (inactive)	15.8 µM (inactive)	16.2 µM (inactive)	> 100 µM (inactive)	6.76 µM (inactive)	7.01 µM (inactive)	18.4 µM (inactive)	25.2 µM (inactive)	10.3 µM (inactive)	16.2 µM (inactive)	14.6 µM (inactive)	17.6 µM (inactive)	12.1 µM (inactive)	17.9 µM (inactive)	3.28 µM (inactive)	24.4 µM (inactive)	18.6 µM (inactive)
CSC1=NC(=O)CCN1C1OCC(OC(C)=O)C(OC(C)=O)C1OC(C)=O (stereo not given)	18.5 µM	18.7 µM (inactive)	17.9 µM (inactive)	12.6 µM (inactive)	15.1 µM (inactive)	3.65 µM (inactive)	> 10 µM (inactive)	17.9 µM (inactive)	> 10 µM (inactive)	18.7 µM (inactive)	19.6 µM (inactive)	15.8 µM (inactive)	16.9 µM (inactive)	12.1 µM (inactive)	16.1 µM (inactive)	10.9 µM (inactive)	16.3 µM (inactive)	4.51 µM (inactive)	17.1 µM (inactive)	19.3 µM (inactive)
Brc1ccccc1/C=N\C12CC3CC(CC(C3)C1)C2	1.99 µM	> 81.8 µM (inactive)	38.4 µM (inactive)	> 64.6 µM (inactive)	> 100 µM (inactive)	1.02 µM (active)	28.1 µM (inactive)	8.47 µM (inactive)	3.38 µM (inactive)	> 100 µM (inactive)	> 100 µM (inactive)	> 100 µM (inactive)	99.1 µM (inactive)	15.5 µM (inactive)	> 100 µM (inactive)	51.6 µM (inactive)	> 100 µM (inactive)	1.15 µM (inactive)	> 100 µM (inactive)	> 100 µM (inactive)
OCc1cccc(Nc2nc(O)c3[nH]cnc3n2)c1	> 100 µM	> 100 µM (inactive)	> 100 µM (inactive)	> 100 µM (inactive)	> 100 µM (inactive)	> 100 µM (inactive)	> 100 µM (inactive)	> 100 µM (inactive)	> 100 µM (inactive)	> 100 µM (inactive)	> 100 µM (inactive)	> 100 µM (inactive)	> 100 µM (inactive)	> 100 µM (inactive)	> 100 µM (inactive)	> 100 µM (inactive)	> 100 µM (inactive)	> 100 µM (inactive)	> 100 µM (inactive)	> 100 µM (inactive)
O=C(CCNC(=O)OCc1ccccc1)OCCCNC(=O)OCc1ccccc1	> 100 µM	> 100 µM (inactive)	> 100 µM (inactive)	> 100 µM (inactive)	> 100 µM (inactive)	> 100 µM (inactive)	> 100 µM (inactive)	> 100 µM (inactive)	> 100 µM (inactive)	> 100 µM (inactive)	> 100 µM (inactive)	> 100 µM (inactive)	> 100 µM (inactive)	> 100 µM (inactive)	> 100 µM (inactive)	> 100 µM (inactive)	> 100 µM (inactive)	> 100 µM (inactive)	> 100 µM (inactive)	> 100 µM (inactive)
